Measured values: article doi:10.1101/2024.08.25.609621 (bioRxiv, 2024)
“And” between values parts separate entries of the source, which are not always exact repeats. Identical values can stand only once. Like-named read-outs stand apart in the source and are kept apart here.

Columns and labels:
[1] = target: SARS-CoV-2 NSP3 macrodomain (Mac1) (Severe acute respiratory syndrome coronavirus 2, UniProt P0DTD1); assay: biochemical; format: binding; settings: for SARS CoV-2 macrodomain HTRF assay: Hillslope: dose-response fit
[2] = target: SARS-CoV-2 NSP3 macrodomain (Mac1), P43 crystal form (Severe acute respiratory syndrome coronavirus 2, UniProt P0DTD1); format: binding; settings: for 1-BDC: PanDDA background density correction; for Total number of conformations: ligand conformations modeled in Mac1 crystal structure; for X-ray crystallography: Binding site: site where the ligand is bound in the X-ray crystal structure
[3] = crystal soak 10 mM, P43 crystals
[4] = occupancy estimate from PanDDA BDC
[5] = SARS CoV-2 macrodomain HTRF assay, dose-response
[6] = Single dose, concentration 200 μM, read-out: Average % competition
[7] = preliminary screen, compound at 200 μM, mean of 3-4 technical replicates, read-out: % competition in HTRF assay
[8] = X-ray crystal structure determined (TRUE)
[9] = occupancy estimate from PanDDA 1-BDC
[10] = site of ligand in X-ray crystal structure
[11] = TRUE = crystal structure with ligand determined
[12] = crystal soak, soak concentration 10 mM
[13] = site of Mac1 where ligand bound in crystal structure
[14] = Dose-response, SARS CoV-2 macrodomain HTRF assay
[15] = Single dose, 200 μM, mean of three technical replicates, read-out: Average % competition
[16] = crystal soak concentration 20 mM
[17] = crystal soak concentration 20 mM, event 1
[18] = crystal soak concentration 20 mM, P43 crystals
[19] = crystal soak concentration 10 mM, event 1
[20] = crystal soak concentration 10 mM, P43 crystals
[21] = crystal soak concentration 10 mM

| SMILES | Hill slope ([1]; HTRF dose-response fit, Mac1) | SARS CoV-2 macrodomain HTRF assay: Hillslope [1] | Occupancy difference (refined_occupancy - 2*(1-BDC)) [2] | Refined ligand occupancy (%) [2] | PanDDA run, DMSO background map: 1-BDC ([2]; event 1) | 1-BDC [2] | Total number of conformations [2] | 2*(1-BDC) (%) [2, 4] | X-ray crystallography: Binding site [2] | other results |
| --- | --- | --- | --- | --- | --- | --- | --- | --- | --- | --- |
| CC1CCCC(O)(CNc2ncnc3[nH]ccc23)C1 (stereo not shown) [AVI-4307] | 1.0 | 1.0 | 0 | 34% | 0.26 | 0.17 | 1 | 34% | Adenosine | Hit (PanDDA run, overall) [2, 3]: TRUE; Hit (PanDDA run, DMSO background map) ([2]; crystal soak 10 mM): TRUE; 1-BDC (PanDDA run, DMSO background map) ([2]; crystal soak 10 mM, event 1): 0.17 |
| OC1(CNc2ncnc3[nH]ccc23)CC2CCC1CC2 (stereo not shown) [AVI-4320] | 1.1 | 1.1 | 0 | 28% | 0.14 | 0.14 | 1 | 28% | Adenosine |  |
| O=C(O)C(F)(F)F.OCC1(Nc2ncnc3[nH]ccc23)CCCC1 [AVI-3692] | 1.3 |  |  |  |  | 0.22 | 1 |  |  | Hill slope [1, 5]: 1.3; inhibition at 200 µM [1, 6]: 85%; inhibition at 200 µM [1, 7]: 85%; X-ray crystal structure [2, 8]: TRUE; Pandda run, overall: Hit [2, 3]: TRUE; Pandda run, overall: Modeled [2, 3]: TRUE; PanDDA run, DMSO background map: 1-BDC ([2]; crystal soak 10 mM): 0.22; PanDDA run, DMSO background map: Hit ([2]; crystal soak 10 mM): TRUE; 2*(1-BDC) (%) [2, 9]: 44%; Binding site [2, 10]: Adenosine |
| O=C(O)C(F)(F)F.OC[C@H](Cc1ccc(O)cc1)Nc1ncnc2[nH]ccc12 [AVI-4066] | 1.1 |  | 10 | 50% |  | 0.2 | 1 | 40% |  | Hill slope [1, 5]: 1.1; X-ray crystal structure [2, 8]: TRUE; Hit (PanDDA run, overall) [2, 3]: TRUE; Hit (PanDDA run, DMSO background map) ([2]; crystal soak 10 mM): TRUE; 1-BDC (PanDDA run, DMSO background map) ([2]; crystal soak 10 mM, event 1): 0.2 and 0.37 and 0.38; Refined TFA occupancy (%) ([2]; occupancy of TFA in the dataset of the named ligand): 20%; Binding site [2, 10]: Adenosine |
| Nc1nnc(SCCn2c(=O)oc3ccccc32)s1 [AVI-296] |  |  |  |  |  | 0.06 | 1 |  |  | Average % competition ([1]; Single dose, 200 μM, mean of three technical replicates): 7%; X-ray crystal structure [2, 11]: TRUE; Pandda run, overall: Hit ([2]; crystal soak, soak concentration 10 mM, P43 crystals, TRUE = ligand-binding event identified): TRUE; PanDDA run, DMSO background map: Hit [2, 12]: TRUE; PanDDA run, DMSO background map: Modeled [2, 12]: TRUE; PanDDA run, DMSO background map: 1-BDC ([2]; crystal soak, soak concentration 10 mM, event 1): 0.06; Pandda run, overall: Modeled ([2]; crystal soak, soak concentration 10 mM, TRUE = ligand modeled): TRUE; 2*(1-BDC) (%) [2, 9]: 12%; Binding site [2, 13]: Distal |
| CN(CC1(O)CCOCC1)c1ncnc2[nH]ccc12 [AVI-4318] | 1.2 | 1.2 | 0 | 50% | 0.26 and 0.25 | 0.25 | 1 | 50% | Adenosine |  |
| O=C1CCc2cc(C(=O)N3CC(C(=O)O)CCC34CCCC4)c(F)cc2N1 (stereo not shown) [AVI-338] | 1.5 |  | 0 | 14% |  | 0.07 | 1 | 14% |  | Hill slope [1, 14]: 1.5; inhibition at 200 µM [1, 15]: 23%; inhibition at 200 µM [1, 7]: 23%; X-ray crystal structure [2, 11]: TRUE; PanDDA run, DMSO background map: Hit [2, 16]: TRUE; PanDDA run, DMSO background map: Modeled [2, 16]: TRUE; PanDDA run, DMSO background map: 1-BDC [2, 17]: 0.07; Pandda run, overall: Hit [2, 18]: TRUE; Pandda run, overall: Modeled [2, 18]: TRUE; Binding site [2, 13]: Adenosine |
| Cc1c[nH]c2ncnc(NCC3(O)CCC(C)CC3)c12 (stereo not shown) [AVI-4331] | 1.2 | 1.2 | 0 | 54% |  | 0.27 | 1 | 54% | Adenosine | Pandda run, overall: Hit ([2]; crystal soak 10 mM, P43 crystals, TRUE = ligand identified by PanDDA): TRUE; PanDDA run, DMSO background map: Hit ([2]; crystal soak 10 mM): TRUE; PanDDA run, DMSO background map: 1-BDC ([2]; crystal soak 10 mM, event 1): 0.27; PanDDA run, DMSO background map: 1-BDC [2, 19]: 0.23; Pandda run, overall: Hit [2, 20]: TRUE; Pandda run, overall: Modeling comment [2, 20]: Duplicate, not modeled; PanDDA run, DMSO background map: Hit [2, 21]: TRUE |
| OCC(Cc1ccccc1)Nc1ncnc2[nH]ccc12 (stereo not shown) [AVI-313] | 1.2 |  |  |  |  | 0.18 | 2 |  |  | Hill slope [1, 14]: 1.2; inhibition at 200 µM [1, 15]: 75%; inhibition at 200 µM [1, 7]: 75%; X-ray crystal structure [2, 11]: TRUE; PanDDA run, DMSO background map: 1-BDC [2, 19]: 0.18; Pandda run, overall: Hit [2, 20]: TRUE; Pandda run, overall: Modeled [2, 20]: TRUE; PanDDA run, DMSO background map: Hit [2, 21]: TRUE; PanDDA run, DMSO background map: Modeled [2, 21]: TRUE; PanDDA run, DMSO background map: Hit [2, 16]: TRUE; PanDDA run, DMSO background map: 1-BDC [2, 17]: 0.25; Pandda run, overall: Hit [2, 18]: TRUE; Pandda run, overall: Modeling comment [2, 18]: Duplicate, not modeled; 2*(1-BDC) (%) [2, 9]: 36%; Binding site [2, 13]: Adenosine |
| OC1(CNc2ncnc3[nH]ccc23)CCCC(C(F)(F)F)C1 (stereo not shown) [AVI-4309] | 1.4 | 1.4 | 0 | 40% | 0.2 | 0.2 | 1 | 40% | Adenosine | Hit (PanDDA run, overall) [2, 3]: TRUE; Hit (PanDDA run, DMSO background map) ([2]; crystal soak 10 mM): TRUE; 1-BDC (PanDDA run, DMSO background map) ([2]; crystal soak 10 mM, event 1): 0.21 |
| OCC1CC=CCN1c1ncnc2[nH]ccc12 (stereo not shown) [AVI-6002] | 1.3 | 1.3 | 18 | 50% | 0.21 and 0.16 | 0.16 | 1 | 32% | Adenosine |  |
| CC(C)(CO)Nc1ncnc2[nH]ccc12 [AVI-5266] | 1.1 |  | 16 | 40% | 0.12 | 0.12 | 1 | 24% |  | Hill slope [1, 5]: 1.1; inhibition at 200 µM [1, 6]: 56%; inhibition at 200 µM [1, 7]: 56%; X-ray crystal structure [2, 8]: TRUE; Binding site [2, 10]: Adenosine |
| CC(O)C1CCCN1c1ncnc2[nH]ccc12 (stereo not shown) [AVI-4062] | 1.1 | 1.1 | 18 | 70% |  | 0.26 | 1 | 52% | Adenosine | Hit (PanDDA run, overall) [2, 3]: TRUE; Hit (PanDDA run, DMSO background map) ([2]; crystal soak 10 mM): TRUE; 1-BDC (PanDDA run, DMSO background map) ([2]; crystal soak 10 mM, event 1): 0.26 and 0.29 |
| OC1CCC(O)(CNc2ncnc3[nH]ccc23)CC1 (stereo not shown) [AVI-6220] | 1.3 | 1.3 | 0 | 14% | 0.07 | 0.07 | 2 | 14% | Adenosine |  |
| Cc1c[nH]c2ncnc(NCC3(O)CCOCC3)c12 [AVI-4194, 4-(((5-methyl-7H-pyrrolo[2,3-d]pyrimidin-4-yl)amino)methyl)tetrahydro-2H-pyran-4-ol] | 1.3 | 1.3 | 0 | 18% |  | 0.09 | 1 | 18% | Adenosine | PanDDA run, DMSO background map: 1-BDC [2, 19]: 0.13 and 0.09; Pandda run, overall: Hit [2, 20]: TRUE; Pandda run, overall: Modeled [2, 20]: TRUE; Pandda run, overall: Modeling comment [2, 20]: Duplicate, not modeled; PanDDA run, DMSO background map: Hit [2, 21]: TRUE; PanDDA run, DMSO background map: Modeled [2, 21]: TRUE |
| OC1(CNc2ncnc3[nH]ccc23)CCOCC1 [AVI-4314] | 1.2 | 1.2 | 0 | 30% | 0.15 and 0.16 | 0.15 | 1 | 30% | Adenosine |  |
| O=C(O)C(F)(F)F.OCC1(Nc2ncnc3[nH]ccc23)CCC1 [AVI-3670] | 1.2 |  |  |  |  | 0.18 | 2 |  |  | Hill slope [1, 5]: 1.2; inhibition at 200 µM [1, 6]: 87%; inhibition at 200 µM [1, 7]: 87%; X-ray crystal structure [2, 8]: TRUE; Pandda run, overall: Hit [2, 3]: TRUE; Pandda run, overall: Modeled [2, 3]: TRUE; PanDDA run, DMSO background map: 1-BDC ([2]; crystal soak 10 mM): 0.18; PanDDA run, DMSO background map: Hit ([2]; crystal soak 10 mM): TRUE; 2*(1-BDC) (%) [2, 9]: 36%; Binding site [2, 10]: Adenosine |
